Source: EP4122499A1, “FIBROBLAST ACTIVATION PROTEIN INHIBITORS AND USE THEREOF” (3B Pharmaceuticals GmbH, priority 2021, dated 2023)

Key:
[1] = Plasma stability assay, mouse plasma; type: in vitro ADME; details: 37°C
Experimental: (§1) In order to determine the stability of selected compounds of the invention in human and mouse plasma, a plasma stability assay was carried out. Such plasma stability assay measures degradation of compounds of the present invention in blood plasma. This is an important characteristic of a compound as compounds, with the exception of pro-drugs, which rapidly degrade in plasma, generally show poor in vivo efficacy. […] The stability is sufficient for the diagnostic, therapeutic and theragnostic use of these compounds according to the present invention.
(§2) The plasma stability samples were prepared by spiking 50 µl plasma aliquots (all sodium citrate 3.8%) with 1 µl of a 0.5 mM compound stock solution in DMSO. After vortexing, the samples were incubated in a Thermomixer at 37°C for 4 or 6 hours. After incubation the samples were stored on ice until further treatment. All samples were prepared in duplicates.
A suitable internal standard was added to each sample (1 µl of a 0.5 mM stock solution in DMSO). Protein precipitation was performed using two different methods depending on the compound conditions as indicated in Table 8. • A) 250 µl of acetonitrile containing 1% trifluoroacetic acid was added. […] After incubation at room temperature for 30 min the precipitate was separated by centrifugation. To 100 µl of the supernatant 10 µl of 1% formic acid was added followed by further incubation at 60°C for 10 min to complete the formation of the zinc chelate, if the compound contains a free DOTA moiety.
The determination of the analyte in the clean sample solutions was performed on an Agilent 1290 UHPLC system coupled to an Agilent 6530 Q-TOF mass spectrometer. The chromatographic separation was carried out on a Phenomenex BioZen XB-C18 HPLC column (50 x 2 mm, 1.7 µm particle size) with gradient elution using a mixture of 0.1% formic acid in water as eluent A and acetonitrile as eluent B (2% B to 41% in 7 min, 800 µl/min, 40°C). Mass spectrometric detection was performed in positive ion ESI mode by scanning the mass range from m/z 50 to 3000 with a sampling rate of 2 / sec.
From the mass spectrometric raw data the ion currents for the double or triple charged monoisotopic signal was extracted for both, the compound and the internal standard.
(§3) Quantitation was performed by external matrix calibration with internal standard using the integrated analyte signals.
The result is stated as "% intact compound remaining after 4 h or 6 h" and means that from the amount of material at the start of the experiment the stated percentage is detected as unchanged material at the end of the experiment by LC-MS quantification. Since all compounds are more than 50% intact after at least 4 h they are considered as stable enough for diagnostic and therapeutic applications. Table 8: Results of the plasma stability assay

HEK-FAP cells = target: T1, HEK-FAP cells (Homo sapiens, UniProt Q12884); assay: LigandTracer assay with 111In-labeled compounds; type: binding; details: 111In-labeled compound; for kon: association rate, read-out: ka
T1 construct: expressed in transfected cells; host or cells: HEK293
T1 sequence (Q12884 1-760): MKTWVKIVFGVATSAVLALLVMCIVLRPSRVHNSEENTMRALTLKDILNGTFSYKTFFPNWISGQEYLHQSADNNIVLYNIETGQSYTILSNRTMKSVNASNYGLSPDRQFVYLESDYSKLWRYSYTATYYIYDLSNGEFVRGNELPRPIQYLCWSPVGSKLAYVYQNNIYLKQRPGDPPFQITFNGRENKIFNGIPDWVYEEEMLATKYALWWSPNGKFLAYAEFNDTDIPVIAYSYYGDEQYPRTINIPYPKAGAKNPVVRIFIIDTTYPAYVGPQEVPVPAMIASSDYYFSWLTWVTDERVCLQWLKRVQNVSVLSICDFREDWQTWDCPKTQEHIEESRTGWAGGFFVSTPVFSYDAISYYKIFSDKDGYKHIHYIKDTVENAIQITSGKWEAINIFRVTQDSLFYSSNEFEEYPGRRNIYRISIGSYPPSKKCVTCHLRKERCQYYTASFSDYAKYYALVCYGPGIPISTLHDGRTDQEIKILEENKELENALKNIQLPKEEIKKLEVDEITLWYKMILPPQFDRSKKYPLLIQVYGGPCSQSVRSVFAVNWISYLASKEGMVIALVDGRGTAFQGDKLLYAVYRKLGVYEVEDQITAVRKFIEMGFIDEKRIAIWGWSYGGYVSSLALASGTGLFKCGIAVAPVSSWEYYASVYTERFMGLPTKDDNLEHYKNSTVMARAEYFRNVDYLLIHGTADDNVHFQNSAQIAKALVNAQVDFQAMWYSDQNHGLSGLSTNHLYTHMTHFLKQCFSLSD
Experimental: HEK293 cells (human embryonic kidney cells) were engineered to express the human FAP. […] Cell concentrations were adjusted to 3 x 10^5 mL^-1, and 3.000 µL of the suspension was dispensed into a poly-lysine-coated, clear cell dish (10cm). Approximately 24 hours after re-seeding, the medium was replaced by assay medium (Ham's medium with 20 mM HEPES) containing 1 % FCS. The dish was placed in the LigandTracer® device and a baseline measurement was obtained using the LigandTracer® Control software (version 2.4). […] To determine the dissociation rate (kd) the cells were washed and subsequently incubated with fresh assay medium for several hours. […] Table 14 Results of the LigandTracer® assay

[2] = Plasma stability assay, human plasma; type: in vitro ADME; details: 37°C, 6 h
Experimental: as §1, §2
A suitable internal standard was added to each sample (1 µl of a 0.5 mM stock solution in DMSO). […]
as §3
The result is stated as "% intact compound remaining after 4 h or 6 h" and means that from the amount of material at the start of the experiment the stated percentage is detected as unchanged material at the end of the experiment by LC-MS quantification. […]

Compound	% intact compound remaining after incubation ([1]; 4 h)	HL (HEK-FAP cells) [min]	pKD (HEK-FAP cells)	% intact compound remaining after incubation [2]	kon (HEK-FAP cells) [M⁻¹ s⁻¹]	% intact compound remaining after incubation ([1]; 6 h)
CS(=O)(=O)c1cccc(-c2ccc3nccc(C(=O)NCC(=O)N4CC(F)(F)C[C@H]4C#N)c3c2)c1 [Compound 3BP-3126]	78% (4 h)	–	–	–	–	–
CS(=O)(=O)c1cccc(-c2ccc3c(C(=O)NCC(=O)N4CC(F)(F)C[C@H]4C#N)ccnc3c2)c1 [Compound 3BP-3127]	> 95% (4 h)	–	–	–	–	–
CS(=O)(=O)c1ccc(-c2ccc3c(C(=O)NCC(=O)N4CCC[C@H]4C#N)ccnc3c2)cc1 [Compound 3BP-3128]	> 95% (4 h)	–	–	–	–	–
O=C(NCC(=O)N1CCC[C@H]1C(=O)c1nc2ccccc2o1)c1ccnc2c1=CCCC=2 [Compound 3BP-3205]	> 95% (4 h)	–	–	–	–	–
O=C(NCC(=O)N1CCC[C@H]1C(=O)c1ncco1)c1ccnc2ccccc12 [Compound 3BP-3208]	92% (4 h)	–	–	–	–	–
O=C(O)CN1CCN(CC(=O)O)CCN(CC(=O)NCCCS(=O)(=O)c2ccc(-c3ccc4nccc(C(=O)NCC(=O)N5CCC[C@H]5C(=O)c5nc6ccccc6o5)c4c3)cc2)CCN(CC(=O)O)CC1 [Compound 3BP-3581, (S)-2,2',2"-(10-(2-(3-(4-(4-(2-(2-(benzo[d]oxazole-2-carbonyl)pyrrolidin-1-yl)-2-oxoethylcarbamoyl)quinolin-6-yl)phenylsulfonyl)propylamino)-2-oxoethyl)-1,4,7,10-tetraazacyclododecane-1,4,7-triyl)triacetic acid]	–	345 ± 218	–	–	–	–
CN(CCCN1CCN(C(=O)CN2CCN(CC(=O)O)CCN(CC(O)O)CCN(CC(=O)O)CC2)CC1)c1ccc2nccc(C(=O)NCC(=O)N3CC(F)(F)C[C@H]3C#N)c2c1 [Compound 3BP-4200, reference compound]	–	1798 ± 24	10.4 ± 0.0	–	–	–
O=C(O)CN1CCN(CC(=O)O)CCN(CC(=O)N2CCN(CCNC(=O)c3ccc(-c4ccc5nccc(C(=O)NCC(=O)N6CCC[C@H]6C(=O)c6nc7ccccc7o6)c5c4)cc3)CC2)CCN(CC(=O)O)CC1 [Compound 3BP-4663]	–	1477 ± 2013	9.8 ± 0.7	89% (6 h)	150000	92% (6 h)
O=C(O)CN1CCN(CC(=O)O)CCN(CC(=O)N2CCN(CCNC(=O)c3cccc(-c4ccc5nccc(C(=O)NCC(=O)N6CCC[C@H]6C(=O)c6nc7ccccc7o6)c5c4)c3)CC2)CCN(CC(=O)O)CC1 [Compound 3BP-4664]	–	1030 ± 1439	9.3 ± 0.7	–	160000	–
O=C(O)CN1CCN(CC(=O)O)CCN(CC(=O)N2CCN(CCNC(=O)c3ccc(-c4ccc5c(C(=O)NCC(=O)N6CCC[C@H]6C(=O)c6nc7ccccc7o6)ccnc5c4)cc3)CC2)CCN(CC(=O)O)CC1 [Compound 3BP-4665]	–	22 ± 16	8.8 ± 0.2	–	220000	–
O=C(O)CN1CCN(CC(=O)O)CCN(CC(=O)N2CCN(CCNC(=O)c3cccc(-c4ccc5c(C(=O)NCC(=O)N6CCC[C@H]6C(=O)c6nc7ccccc7o6)ccnc5c4)c3)CC2)CCN(CC(=O)O)CC1 [Compound 3BP-4694]	–	3946 ± 1189	10.3 ± 0.1	–	57000	90% (6 h)
O=C(O)CN1CCN(CC(=O)O)CCN(CC(=O)N2CCN(CCCOc3ccc4nccc(C(=O)NCC(=O)N5CCC[C@H]5C(=O)c5nc6ccccc6o5)c4c3)CC2)CCN(CC(=O)O)CC1 [Compound 3BP-4808]	–	20 ± 5	8.2 ± 0.0	–	94000	–
O=C(O)CN1CCN(CC(=O)O)CCN(CC(=O)N2CCN(CCCOc3ccc4nccc(C(=O)NCC(=O)N5C[C@@H](F)C[C@H]5C(=O)c5nc6ccccc6o5)c4c3)CC2)CCN(CC(=O)O)CC1 [Compound 3BP-4809]	–	18 ± 1	8.2 ± 0.1	–	–	–
O=C(O)CN1CCN(CC(=O)O)CCN(CC(=O)N2CCN(CCNC(=O)c3ccc(-c4ccc5nccc(C(=O)NCC(=O)N6C[C@@H](F)C[C@H]6C(=O)c6nc7ccccc7o6)c5c4)cc3)CC2)CCN(CC(=O)O)CC1 [Compound 3BP-4810]	–	38 ± 4	8.5 ± 0.1	–	–	–
O=C(O)CN1CCN(CC(=O)O)CCN(CC(=O)N2CCN(CCNC(=O)c3ccc(-c4ccc5nccc(C(=O)NCC(=O)N6CCC[C@H]6C(=O)c6nc7ccccc7o6)c5c4)cn3)CC2)CCN(CC(=O)O)CC1 [Compound 3BP-4811]	–	27 ± 12	8.3 ± 0.2	–	–	–
